Measured values taken from patent US4791118A, “Quinolonecarboxylic acid derivatives and their preparation” (Kyorin Pharmaceutical Co., Ltd., priority 1985, dated 1988).
Values after ≈ are worked out from the molar mass of the structure shown. Where two headings read alike, the source gives them in different places.

Columns and labels:
[1] = test system: Streptococcus pyogenes (S-8); experiment: MIC, aerobic bacteria; format: cell-based; details: Gram +, 10^6 cells/ml
S. pneumoniae IID 552 = experiment: MIC, aerobic bacteria; format: cell-based; details: Streptococcus pneumoniae, IID552, Gram +, 10^6 cells/ml
P. aeruginosa IFO 12689 = experiment: MIC, aerobic bacteria; format: cell-based; details: Pseudomonas aeruginosa, IFO12689, Gram -, 10^6 cells/ml
[2] = test system: Acinetobacter anitratus IID 876; experiment: MIC, aerobic bacteria; format: cell-based; details: Acinetobacter calcoaceticus, IID876, Gram -, 10^6 cells/ml
Text: (§1) | Organism (10^6 cells/ml)

[3] = test system: Citrobacter freundii IID 976; experiment: MIC, aerobic bacteria; format: cell-based; details: IID976, Gram -, 10^6 cells/ml
Text: as §1

E. coli ATCC 10536 = experiment: MIC, aerobic bacteria; format: cell-based; details: Escherichia coli, ATCC10536, Gram -, 10^6 cells/ml
Text: as §1

[4] = test system: Escherichia coli NIHJ JC-2; experiment: MIC, aerobic bacteria; format: cell-based; details: NIHJJC2, Gram -, 10^6 cells/ml
Text: as §1

[5] = test system: Klebsiella pneumoniae KY(GN)6445; experiment: MIC, aerobic bacteria; format: cell-based; details: Gram -, 10^6 cells/ml
Text: as §1

[6] = test system: Morganella morganii IID 602; experiment: MIC, aerobic bacteria; format: cell-based; details: IID602, Gram -, 10^6 cells/ml
Text: as §1

P. mirabilis IID 992 = experiment: MIC, aerobic bacteria; format: cell-based; details: Proteus mirabilis, IID992, Gram -, 10^6 cells/ml
Text: as §1

[7] = test system: Proteus vulgaris IFO 3167; experiment: MIC, aerobic bacteria; format: cell-based; details: IFO3167, Gram -, 10^6 cells/ml
Text: as §1

[8] = test system: S. aureus IID 670 (Terajima); experiment: MIC, aerobic bacteria; format: cell-based; details: Staphylococcus aureus, IID670, Gram +, 10^6 cells/ml
Text: as §1

S. epidermidis IID 866 = experiment: MIC, aerobic bacteria; format: cell-based; details: Staphylococcus epidermidis, IID866, Gram +, 10^6 cells/ml
Text: as §1

[9] = test system: Serratia marcescens IID 618; experiment: MIC, aerobic bacteria; format: cell-based; details: IID618, Gram -, 10^6 cells/ml
Text: as §1

F. necrophorum S-45 = experiment: MIC, anaerobic bacteria; format: cell-based; details: Fusobacterium necrophorum, S45, Gram -, 10^6 cells/ml
[10] = test system: Propionibacterium acens 11828; experiment: MIC, anaerobic bacteria; format: cell-based
C. perfringens KYA 13123 = experiment: microbe, parasite or virus in culture; format: cell-based; details: Clostridium perfringens, KYA13123
[11] = test system: Peptostreptococcus anaerobius KYA 27337; experiment: MIC, anaerobic bacteria; format: cell-based; details: KYA27337, Gram +, 10^6 cells/ml
S. pyogenes 4340 = experiment: MIC, clinical isolates; format: cell-based; details: Streptococcus pyogenes; clinical isolate S. pyogenes 4340; 10^6 cells/ml
S. pyogenes 4372 = experiment: MIC, clinical isolates; format: cell-based; details: Streptococcus pyogenes; clinical isolate S. pyogenes 4372; 10^6 cells/ml
S. pneumoniae 3727 = experiment: MIC, clinical isolates; format: cell-based; details: Streptococcus pneumoniae; clinical isolate S. pneumoniae 3727; 10^6 cells/ml
S. pneumoniae 4288 = experiment: MIC, clinical isolates; format: cell-based; details: Streptococcus pneumoniae; clinical isolate S. pneumoniae 4288; 10^6 cells/ml
S. agalactiae 4049 = experiment: MIC, clinical isolates; format: cell-based; details: Streptococcus agalactiae; clinical isolate S. agalactiae 4049; 10^6 cells/ml
S. agalactiae 4342 = experiment: MIC, clinical isolates; format: cell-based; details: Streptococcus agalactiae; clinical isolate S. agalactiae 4342; 10^6 cells/ml
S. agalactiae 4368 = experiment: MIC, clinical isolates; format: cell-based; details: Streptococcus agalactiae; clinical isolate S. agalactiae 4368; 10^6 cells/ml
S. agalactiae 4468 = experiment: MIC, clinical isolates; format: cell-based; details: Streptococcus agalactiae; clinical isolate S. agalactiae 4468; 10^6 cells/ml
E. faecalis 49 = experiment: MIC, clinical isolates; format: cell-based; details: Enterococcus faecalis; clinical isolate E. faecalis 49; 10^6 cells/ml
E. faecalis 401 = experiment: MIC, clinical isolates; format: cell-based; details: Enterococcus faecalis; clinical isolate E. faecalis 401; 10^6 cells/ml
E. faecalis 604 = experiment: MIC, clinical isolates; format: cell-based; details: Enterococcus faecalis; clinical isolate E. faecalis 604; 10^6 cells/ml
[12] = test system: Enterobacter cloacae IID 977; experiment: MIC, aerobic bacteria; details: IID977
[13] = test system: Eubacterium limosum KYA 8486; experiment: MIC, anaerobic bacteria; details: KYA8486
[14] = test system: Bacillus subtilis PCI 219; experiment: microbe, parasite or virus in culture; details: PCI219
Shigella sonnei IID 969 = experiment: microbe, parasite or virus in culture; details: IID969
[15] = test system: Salmonella enteritidis IID 604; experiment: microbe, parasite or virus in culture; details: Salmonella enterica
[16] = test system: Yersinia enterocolitica IID 981; experiment: microbe, parasite or virus in culture; details: IID981
P. cepacia GIFU 518 = experiment: microbe, parasite or virus in culture; details: Burkholderia cepacia, GIFU518
S. agalactiae 4394 = experiment: microbe, parasite or virus in culture; details: Streptococcus agalactiae
E. faecalis 402 = experiment: microbe, parasite or virus in culture; details: Enterococcus faecalis

Row | SMILES | MIC [1] | MIC (S. pneumoniae IID 552) | MIC (P. aeruginosa IFO 12689) | MIC [2] | MIC [3] | MIC (E. coli ATCC 10536) | MIC [4] | MIC [5] | MIC [6] | MIC (P. mirabilis IID 992) | MIC [7] | MIC [8] | MIC (S. epidermidis IID 866) | MIC [9] | MIC (F. necrophorum S-45) | MIC (C. perfringens KYA 13123) | MIC [11] | MIC (S. pyogenes 4340) | MIC (S. pyogenes 4372) | MIC (S. pneumoniae 3727) | also measured
1 | O=C(O)c1cn(C2CC2)c2c(Cl)c(N3CCC(CNCCF)C3)c(F)cc2c1=O (stereo not shown) [Exp. 1, 8-Chloro-1-cyclopropyl-6-fluoro-7-[3-(2-fluoroethyl)aminomethyl-1-pyrrolidinyl]-1,4-dihydro-4-oxo-3-quinolinecarboxylic acid] | 0.025 µg/mL (≈ 0.0587 µM) | 0.025 µg/mL (≈ 0.0587 µM) | 1.56 µg/mL (≈ 3.66 µM) | 0.05 µg/mL (≈ 0.117 µM) | 0.05 µg/mL (≈ 0.117 µM) | 0.0125 µg/mL (≈ 0.0294 µM) | 0.0125 µg/mL (≈ 0.0294 µM) | 0.05 µg/mL (≈ 0.117 µM) | 0.1 µg/mL (≈ 0.235 µM) | 0.025 µg/mL (≈ 0.0587 µM) | 0.025 µg/mL (≈ 0.0587 µM) | ≤ 0.0063 µg/mL | 0.0125 µg/mL (≈ 0.0294 µM) | 0.1 µg/mL (≈ 0.235 µM) | 0.1 µg/mL (≈ 0.235 µM) | ≤ 0.05 µg/mL | ≤ 0.05 µg/mL | 0.025 µg/mL (≈ 0.0587 µM) | 0.025 µg/mL (≈ 0.0587 µM) | 0.025 µg/mL (≈ 0.0587 µM) | MIC ([10]; Propionibacterium, 11828): 0.78 µg/mL (≈ 1.83 µM); MIC (S. pneumoniae 4288): 0.025 µg/mL (≈ 0.0587 µM); MIC (S. agalactiae 4049): 0.025 µg/mL (≈ 0.0587 µM); MIC (S. agalactiae 4342): 0.05 µg/mL (≈ 0.117 µM); MIC (S. agalactiae 4368): 0.025 µg/mL (≈ 0.0587 µM); MIC (S. agalactiae 4468): 0.025 µg/mL (≈ 0.0587 µM); MIC (E. faecalis 49): 0.05 µg/mL (≈ 0.117 µM); MIC (E. faecalis 401): 0.05 µg/mL (≈ 0.117 µM); MIC (E. faecalis 604): 0.05 µg/mL (≈ 0.117 µM); MIC [12]: 0.1 µg/mL (≈ 0.235 µM); MIC [13]: 0.39 µg/mL (≈ 0.916 µM); MIC [14]: ≤ 0.0063 µg/mL; MIC (Shigella sonnei IID 969): 0.0125 µg/mL (≈ 0.0294 µM); MIC [15]: 0.1 µg/mL (≈ 0.235 µM); MIC [16]: 0.1 µg/mL (≈ 0.235 µM); MIC (P. cepacia GIFU 518): 0.78 µg/mL (≈ 1.83 µM); MIC (S. agalactiae 4394): 0.1 µg/mL (≈ 0.235 µM); MIC (E. faecalis 402): 0.1 µg/mL (≈ 0.235 µM)
2 | O=C(O)c1cn(C2CC2)c2c(F)c(N3CCC(CNCCF)C3)c(F)cc2c1=O (stereo not shown) [Exp. 2, 1-Cyclopropyl-7-[3-(2-fluoroethyl)aminomethyl-1-pyrrolidinyl]-6,8-difluoro-1,4-dihydro-4-oxo-3-quinolinecarboxylic acid] | 0.05 µg/mL (≈ 0.122 µM) | 0.05 µg/mL (≈ 0.122 µM) | 1.56 µg/mL (≈ 3.81 µM) | 0.05 µg/mL (≈ 0.122 µM) | 0.05 µg/mL (≈ 0.122 µM) | 0.025 µg/mL (≈ 0.0611 µM) | 0.025 µg/mL (≈ 0.0611 µM) | 0.05 µg/mL (≈ 0.122 µM) | 0.2 µg/mL (≈ 0.489 µM) | 0.05 µg/mL (≈ 0.122 µM) | 0.05 µg/mL (≈ 0.122 µM) | 0.025 µg/mL (≈ 0.0611 µM) | 0.025 µg/mL (≈ 0.0611 µM) | 0.2 µg/mL (≈ 0.489 µM) | 0.2 µg/mL (≈ 0.489 µM) | 0.1 µg/mL (≈ 0.244 µM) | ≤ 0.05 µg/mL | 0.05 µg/mL (≈ 0.122 µM) | 0.05 µg/mL (≈ 0.122 µM) | 0.05 µg/mL (≈ 0.122 µM) | MIC ([10]; Propionibacterium acens 11828, anaerobic, Gram +, 10^6 cells/ml, read-out: MIC): 1.56 µg/mL (≈ 3.81 µM); MIC (S. pneumoniae 4288): 0.05 µg/mL (≈ 0.122 µM); MIC (S. agalactiae 4049): 0.05 µg/mL (≈ 0.122 µM); MIC (S. agalactiae 4342): 0.05 µg/mL (≈ 0.122 µM); MIC (S. agalactiae 4368): 0.05 µg/mL (≈ 0.122 µM); MIC (S. agalactiae 4468): 0.05 µg/mL (≈ 0.122 µM); MIC (E. faecalis 49): 0.05 µg/mL (≈ 0.122 µM); MIC (E. faecalis 401): 0.1 µg/mL (≈ 0.244 µM); MIC (E. faecalis 604): 0.1 µg/mL (≈ 0.244 µM); MIC [12]: 0.1 µg/mL (≈ 0.244 µM); MIC [13]: 0.78 µg/mL (≈ 1.91 µM); MIC [14]: 0.0125 µg/mL (≈ 0.0305 µM); MIC (Shigella sonnei IID 969): 0.0125 µg/mL (≈ 0.0305 µM); MIC [15]: 0.1 µg/mL (≈ 0.244 µM); MIC [16]: 0.1 µg/mL (≈ 0.244 µM); MIC (P. cepacia GIFU 518): 0.78 µg/mL (≈ 1.91 µM); MIC (S. agalactiae 4394): 0.1 µg/mL (≈ 0.244 µM); MIC (E. faecalis 402): 0.1 µg/mL (≈ 0.244 µM)
